Data published in patent US9834542B2, “LXR modulators” (BRISTOL-MYERS SQUIBB COMPANY, priority 2013, dated 2017).

Target: T1, LXRβ (Homo sapiens, UniProt P55055)
T1 construct: Co-transfection expression plasmids, comprising full-length LXRα (pCMX-h LXRα[…] or LXRβ (pCMX-hLXRβ)); expressed in transfected cells; host or cells: CV-1 African Green Monkey Kidney Cells
T1 sequence (P55055 1-460): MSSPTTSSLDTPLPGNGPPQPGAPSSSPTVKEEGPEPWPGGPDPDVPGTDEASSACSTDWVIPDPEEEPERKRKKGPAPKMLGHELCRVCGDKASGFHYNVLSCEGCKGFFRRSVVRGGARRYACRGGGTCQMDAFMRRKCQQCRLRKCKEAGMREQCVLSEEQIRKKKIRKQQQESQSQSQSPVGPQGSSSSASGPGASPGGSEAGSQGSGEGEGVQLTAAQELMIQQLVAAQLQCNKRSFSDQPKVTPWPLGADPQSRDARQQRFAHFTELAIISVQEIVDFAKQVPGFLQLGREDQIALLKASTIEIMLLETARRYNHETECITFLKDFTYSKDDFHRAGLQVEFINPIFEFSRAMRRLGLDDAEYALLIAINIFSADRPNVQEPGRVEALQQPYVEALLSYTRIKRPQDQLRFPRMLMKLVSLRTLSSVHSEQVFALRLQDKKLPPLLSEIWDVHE
T1 sequence (P19793 1-462 partner): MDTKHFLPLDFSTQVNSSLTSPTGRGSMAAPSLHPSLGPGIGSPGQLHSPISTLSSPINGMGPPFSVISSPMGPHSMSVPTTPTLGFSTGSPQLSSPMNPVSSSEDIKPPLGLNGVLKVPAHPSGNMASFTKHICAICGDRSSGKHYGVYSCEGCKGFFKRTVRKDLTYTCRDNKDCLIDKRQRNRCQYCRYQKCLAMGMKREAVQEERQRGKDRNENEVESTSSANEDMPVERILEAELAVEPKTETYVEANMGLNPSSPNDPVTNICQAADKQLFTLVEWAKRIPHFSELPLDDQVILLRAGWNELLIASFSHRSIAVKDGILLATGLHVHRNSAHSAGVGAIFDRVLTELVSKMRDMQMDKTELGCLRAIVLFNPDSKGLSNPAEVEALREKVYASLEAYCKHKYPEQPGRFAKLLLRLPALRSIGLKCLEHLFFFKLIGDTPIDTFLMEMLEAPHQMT
Assay: Co-transfection assay (LXRE luciferase reporter), LXRβ
Format: cell-based
Settings: for EC50: CV-1 cells transfected with pCMX-hLXRβ and LXREx1-Tk-Luciferase, 20 hours incubation; for Emax: LXRβ co-transfection, relative to high control 1-(2,4-difluorobenzyl)-2-oxo-6-(4-phenoxyphenyl)-4-(trifluoromethyl)-1,2-dihydropyridine-3-carbonitrile, read-out: % Efficacy
Outline: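 CV-1 cells transiently co-transfected with full-length human LXRβ expression plasmid, LXREx1-Tk-luciferase reporter and β-galactosidase control, then exposed to compound for 20 h at 37 °C. Luciferase luminescence read; EC50 from 11-point, ½-log dose–response fit, efficacy relative to high-control agonist maximum.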

| SMILES | EC50 [nM] | Emax [%] |
| --- | --- | --- |
| CCS(=O)(=O)c1cccc(-c2ccc(-n3cc(C(F)F)nc3C)c(-n3nncc3C(C)c3ccc(Cl)cc3)c2)c1 (stereo not drawn) [Example 131, 5-[1-(4-chlorophenyl)ethyl]-1-{4-[4-(difluoromethyl)-2-methyl-1H-imidazol-1-yl]-3′-(ethylsulfonyl)biphenyl-3-yl}-1H-1,2,3-triazole] | 821 | 77 |
| Cc1nc(C(F)(F)F)cn1-c1ccc(-c2cc(Cl)c(CO)c(S(C)(=O)=O)c2)cc1-n1nncc1-c1ccc(Cl)cc1Cl [Example 18, {3-chloro-3′-[5-(2,4-dichlorophenyl)-1H-1,2,3-triazol-1-yl]-5-(methylsulfonyl)-4′-[2-methyl-4-(trifluoromethyl)-1H-imidazol-1-yl]biphenyl-4-yl}methanol] | 283 | 62 |
| Cc1ccc(-c2cnnn2-c2cc(-c3cccc(S(C)(=O)=O)c3)ccc2-n2cc(C(F)F)nc2C)cc1 [Example 168, 1-{4-[4-(difluoromethyl)-2-methyl-1H-imidazol-1-yl]-3′-(methylsulfonyl)biphenyl-3-yl}-5-(4-methylphenyl)-1H-1,2,3-triazole] | 945 | 81 |
| Cc1nc(C(F)F)cn1-c1ccc(-c2cccc(C(C)(C)C(N)=O)c2)cc1-n1nncc1-c1ccc(OC(F)(F)F)cc1 [Example 156, 2-{4′-[4-(difluoromethyl)-2-methyl-1H-imidazol-1-yl]-3′-(5-{4-[(trifluoromethyl)oxy]phenyl}-1H-1,2,3-triazol-1-yl)biphenyl-3-yl}-2-methylpropanamide] | 1640 | 93 |
| CCOc1ncc(-c2oc(C)nc2-c2cc(-c3ccc(C)c(S(C)(=O)=O)c3)ccc2-n2cc(C(F)(F)F)nc2C)cc1F [Example 473, 5-(6-ethoxy-5-fluoropyridn-3-yl)-2-methyl-4-(4′-methyl-4-(2-methyl-4-(trifluoromethyl)-1H-imidazol-1-yl)-3′-(methylsulfonyl)biphenyl-3-yl)oxazole] | 280 | 50 |
| Cc1nc(-c2cc(-c3cccc(S(C)(=O)=O)c3)ccc2-n2cc(CO)nc2C)c(-c2ccc3c(c2)OC(F)(F)O3)o1 [Example 369, (1-(3-(5-(2,2-difluorobenzo[d][1,3]dioxol-5-yl)-2-methyloxazol-4-yl)-3′-(methylsulfonyl)biphenyl-4-yl)-2-methyl-1H-imidazol-4-yl)methanol] | 1140 | 29 |
| CS(=O)(=O)c1cccc(-c2ccc(-n3cnc(C(F)(F)F)c3)c(-n3nncc3-c3ccc(Cl)cc3)c2)c1 [Example 13, 5-(4-chlorophenyl)-1-{3′-(methylsulfonyl)-4-[4-(trifluoromethyl)-1H-imidazol-1-yl]biphenyl-3-yl}-1H-1,2,3-triazole] | 957 | 74 |
| Cc1nc(C(F)F)c(C)n1-c1ccc(-c2cccc(S(C)(=O)=O)c2)cc1-n1nncc1-c1ccc(Cl)cc1 [Example 230, 5-(4-chlorophenyl)-1-(4-(4-(difluoromethyl)-2,5-dimethyl-1H-imidazol-1-yl)-3′-(methylsulfonyl)-[1,1′-biphenyl]-3-yl)-1H-1,2,3-triazole] | 2050 | 24 |
| CS(=O)(=O)c1cccc(-c2cc(Cl)c(-n3cnc(C(F)(F)F)c3)c(-n3nncc3-c3ccc(OC(F)(F)F)cc3)c2)c1 [Example 192, 1-{5-chloro-3′-(methylsulfonyl)-4-[4-(trifluoromethyl)-1H-imidazol-1-yl]biphenyl-3-yl}-5-{4-[(trifluoromethyl)oxy]phenyl}-1H-1,2,3-triazole] | 598 | 42 |
| Cc1cc(-c2cnnn2-c2cc(-c3cccc(S(C)(=O)=O)c3)ccc2-n2cc(C(F)(F)F)nc2C)ccc1F [Example 28, 5-(4-fluoro-3-methylphenyl)-1-{3′-(methylsulfonyl)-4-[2-methyl-4-(trifluoromethyl)-1H-imidazol-1-yl]biphenyl-3-yl}-1H-1,2,3-triazole] | 589 | 117 |
| COCc1c(F)cc(-c2ccc(-n3cc(C(C)(F)F)nc3C)c(-n3nncc3-c3ccc(OC(F)(F)F)cc3)c2)cc1S(C)(=O)=O [Example 179, 1-{4-[4-(1,1-difluoroethyl)-2-methyl-1H-imidazol-1-yl]-3′-fluoro-4′-[(methyloxy)methyl]-5′-(methylsulfonyl)biphenyl-3-yl}-5-{4-[(trifluoromethyl)oxy]phenyl}-1H-1,2,3-triazole] | 620 | 105 |

Molecules with a lower EC50, results first:

| EC50 [nM] | Emax [%] | SMILES |
| --- | --- | --- |
| 203 | 59 | Cc1nc(C(F)(F)C(C)C)cn1-c1ccc(-c2cccc(S(C)(=O)=O)c2)cc1-n1nncc1-c1ccc(OC(F)(F)F)cc1 [Example 164, 1-{4-[4-(1,1-difluoro-2-methylpropyl)-2-methyl-1H-imidazol-1-yl]-3′-(methylsulfonyl)biphenyl-3-yl}-5-{4-[(trifluoromethyl)oxy]phenyl}-1H-1,2,3-triazole] |
| 25 | 81 | Cc1cc(-c2cc(-c3ccc(CO)c(S(C)(=O)=O)c3)ccc2-n2cc(C(F)(F)F)nc2C)n(-c2ccc(OC(F)F)cc2)n1 [Example 302, (3′-(1-(4-(difluoromethoxy)phenyl)-3-methyl-1H-pyrazol-5-yl)-4′-(2-methyl-4-(trifluoromethyl)-1H-imidazol-1-yl)-3-(methylsulfonyl)-[1,1′-biphenyl]-4-yl)methanol] |
| 251 | 112 | CS(=O)(=O)c1cccc(-c2ccc(-n3cc(C(F)(F)F)nc3Cl)c(-n3nncc3-c3ccc(OC(F)(F)F)cc3)c2)c1 [Example 146, 1-{4-[2-chloro-4-(trifluoromethyl)-1H-imidazol-1-yl]-3′-(methylsulfonyl)biphenyl-3-yl}-5-{4-[(trifluoromethyl)oxy]phenyl}-1H-1,2,3-triazole] |
| 156 | 60 | COCCc1nc(-c2cc(-c3cccc(S(C)(=O)=O)c3)ccc2-n2cc(C(F)(F)F)nc2C)c(-c2ccc(Cl)cc2Cl)o1 [Example 553, 5-(2,4-dichlorophenyl)-2-(2-methoxyethyl)-4-(4-(2-methyl-4-(trifluoromethyl)-1H-imidazol-1-yl)-3′-(methylsulfonyl)-[1,1′-biphenyl]-3-yl)oxazole] |
| 143 | 79 | Cc1nc(C(F)(F)F)cn1-c1ccc(-c2cc(F)c(CO)c(S(C)(=O)=O)c2)cc1-c1nc(C(F)(F)F)cn1-c1ccc2c(c1)OC(F)(F)O2 [Example 638, (3′-(1-(2,2-difluorobenzo[d][1,3]dioxol-5-yl)-4-(trifluoromethyl)-1H-imidazol-2-yl)-3-fluoro-4′-(2-methyl-4-(trifluoromethyl)-1H-imidazol-1-yl)-5-(methylsulfonyl)biphenyl-4-yl)methanol] |
| 201 | 105 | Cc1nc(C(F)(F)F)cn1-c1ccc(-c2cccc(S(C)(=O)=O)c2)cc1-c1cnnn1-c1ccc(OC(F)(F)F)cc1 [Example 242, 5-{3′-(methylsulfonyl)-4-[2-methyl-4-(trifluoromethyl)-1H-imidazol-1-yl]biphenyl-3-yl}-1-{4-[(trifluoromethyl)oxy]phenyl}-1H-1,2,3-triazole] |
| 40 | 91 | Cc1nc(-c2ccc(OC(F)(F)F)cc2)c(-c2cc(-c3cc(F)c(CO)c(S(C)(=O)=O)c3)ccc2-n2cc(C(F)(F)F)nc2C)o1 [Example 603, (3-fluoro-3′-(2-methyl-4-(4-(trifluoromethoxy)phenyl)oxazol-5-yl)-4′-(2-methyl-4-(trifluoromethyl)-1H-imidazol-1-yl)-5-(methylsulfonyl)-[1,1′-biphenyl]-4-yl)methanol] |
